Here are results for four molecules from patent US20090105239A1, “2-PYRIDINE DERIVATIVES AS INHIBITORS OF NEUTROPHILE ELASTASE” (priority 2005, published 2009).

In the assay the target is T1, Human Neutrophil Elastase (HNE) (Homo sapiens, UniProt P08246).
T1 construct: Human Neutrophil Elastase (HNE) purified from serum; purchased Calbiochem 324681; host or cells: purified from human serum (so in the source)
T1 sequence (P08246 30-247 limits assumed): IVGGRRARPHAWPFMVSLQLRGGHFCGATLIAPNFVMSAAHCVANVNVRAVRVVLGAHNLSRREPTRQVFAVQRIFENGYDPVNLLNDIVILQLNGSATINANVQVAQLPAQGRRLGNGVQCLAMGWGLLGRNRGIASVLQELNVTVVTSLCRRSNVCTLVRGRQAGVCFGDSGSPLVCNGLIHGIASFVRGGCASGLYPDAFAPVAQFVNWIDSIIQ
The assay is described as follows: Human Neutrophil Elastase Quenched-FRET Assay. It counts as biochemical. The following applies: HNE purified from serum 1.7 nM, substrate MeOSuc-AAPV-AMC 100 μM, 30 minutes at room temperature; read-out: Inhibition of Human Neutrophil Elastase IC50. The method, then:
Human Neutrophil Elastase Quenched-FRET Assay
HNE was stored in 50 mM sodium acetate (NaOAc), 200 mM sodium chloride (NaCl), pH 5.5 with added 30% glycerol at −20° C. […] The substrate was stored in dimethyl sulphoxide (DMSO) at −20° C. […] The assay buffer constitution was: 100 mM Tris(hydroxymethyl)aminomethane (TRIS) (pH 7.5) and 500 mM NaCl. The enzyme and the compounds were incubated at room temperature for 15 minutes. Then 30 μl substrate in assay buffer was added. The assay was incubated for 30 minutes at room temperature. […] The assay was then stopped by adding 60 μl stop solution (140 mM acetic acid, 200 mM sodium monochloroacetate, 60 mM sodium acetate, pH 4.3).
Usually IC50 stands for the concentration that gives 50% inhibition. In the case of `Cc1c(S(=O)(=O)O)cc(C(=O)NCc2ccc(S(C)(=O)=O)cc2)c(=O)n1-c1cccc(C(F)(F)F)c1` [Example 86, 2-Methyl-5-({[4-(methylsulfonyl)benzyl]amino}carbonyl)-6-oxo-1-[3-(trifluoromethyl)phenyl]-1,6-dihydropyridine-3-sulfonic acid], the IC50 stood at 45 nM.
For `Cc1c([S+]([O-])c2ccc(C#N)cc2)cc(C(=O)NCC(C)O)c(=O)n1-c1cccc(C(F)(F)F)c1` (stereo not shown) [Example 49, 5-[(4-Cyanophenyl)sulfinyl]-N-(2-hydroxypropyl)-6-methyl-2-oxo-1-[3-(trifluoromethyl)phenyl]-1,2-dihydropyridine-3-carboxamide], the IC50 stood at 4 nM.
Next, `CC(=O)Nc1ccc(S(=O)(=O)c2cc(C(=O)NCc3ccc(S(C)(=O)=O)cc3)c(=O)n(-c3cccc(C(F)(F)F)c3)c2C)cc1` [Example 59, 5-{[4-(Acetylamino)phenyl]sulfonyl}-6-methyl-N-[4-(methylsulfonyl)benzyl]-2-oxo-1-[3-(trifluoromethyl)phenyl]-1,2-dihydropyridine-3-carboxamide]: 14 nM; `Cc1c([S+]([O-])c2ccc(C#N)cc2)cc(C(=O)NCC2(O)CC2)c(=O)n1-c1cccc(C(F)(F)F)c1` (stereo not shown) [Example 27, 5-[(4-Cyanophenyl)sulfinyl]-N-[(1-hydroxycyclopropyl)methyl]-6-methyl-2-oxo-1-[3-(trifluoromethyl)phenyl]-1,2-dihydropyridine-3-carboxamide]: 9 nM.
